Molecules are shown by their SMILES. pEC50, pIC50: −log10 of the molar value. Active and inactive are the calls of the source.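 The calls were made as follows: active = compounds giving half or more protection of infected cells from virus-caused growth loss, again on retest; inactive = the rest.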

The assay deals with CEM cells HIV-1 protection, formazan growth assay. In words: NCI AIDS Antiviral Assay. Particulars: for pIC50: measured here: growth of uninfected CEM cells. The essentials:
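CEM (human) cells, HIV-1 infected vs uninfected, 5-point dosing, formazan growth read-out. Retest threshold 50% protection.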

Usually pEC50 stands for the EC50 on a negative log10 scale, so that one unit is a factor of ten. By pIC50 is commonly meant the IC50 on a negative log10 scale, so that one unit is a factor of ten. Low readings indicate a large IC50, high ones a small IC50. `CC(C)N(C(=O)c1cccc(C(=O)N(C(C)C)C(C)C)c1)C(C)C`: the pEC50 was below 3.12 and the pIC50 was 3.33.
For `O=c1[nH]cnc2c1ncn2C1CCC2(CO)CC12` (stereo not given), in that order: below 4.30 and below 4.30.
Taken in the same sequence, the figures for `Cc1cc(C)c(NS(=O)c2cccc(C(F)(F)F)c2)c(C)c1` (stereo not given) were below 3.96 and below 3.96.
Turning to `O=c1n(-c2ccccc2)c(=O)n2n1C1CC3c4ccccc4C1C2C31CC1` (stereo not given), the pEC50 was below 4.45 and the pIC50 was below 4.45.
With `CCOC(=O)/C(C#N)=C/c1ccc([N+](=O)[O-])cc1`, the pEC50 was below 4.67 and the negative-log IC50 (pIC50) was below 4.67.
As for `COc1ccc(C[C@H]2COC(=O)[C@@H]2Cc2cccc(Br)c2)cc1OC`, the pEC50 is below 3.70 and the negative-log IC50 (pIC50) was 4.50.
`CCCCCCCCCCOc1cc2c(=O)c(C(=O)OCC)c[nH]c2cc1OCC`: the pEC50 is below 3.70 and the pIC50 is below 3.70.
For the compound `COC1OC(=O)c2ccccc21` (stereo not given), the result was inactive.
Regarding `COc1cccc(NC(=O)CC(=O)N2N=C(N(CCC#N)c3ccccc3C)CC2c2ccccc2)c1` (stereo not given), the pEC50 was below 3.30 and the pIC50 was below 3.30.
As for `c1cc2c(cc1NC1=NCCO1)OCO2`, the pEC50 is below 3.70 and the pIC50 was 4.23.
Consider `CCOP(=O)(OCC)/C(C#N)=C/c1nccn1C`, for which the result was inactive.
Turning to `O=c1[nH]c2ccccc2nc1/C=C/NC(=S)Nc1ccccc1`, the pEC50 was below 3.70 and the pIC50 was below 3.70.
As for `CNCC(=O)c1ccc(O)c(O)c1`, the pEC50 was below 3.70 and the pIC50 was below 3.70.
In the case of `N#C/C=C/c1cccc(C#N)c1`, the pEC50 is below 4.33 and the negative-log IC50 (pIC50) is below 4.33.
Turning to `CS(=O)(=O)c1ccc(N=C/C=C/Nc2ccc(S(C)(=O)=O)cc2)cc1`, the pEC50 is below 3.70 and the pIC50 was below 3.70.
Take `CCN(CC)/[N+]([O-])=N/OCOC`: the pEC50 is below 3.70 and the pIC50 was below 3.70.
For the compound `CCOC(=O)/C(=C/c1ccc(N(C)C)cc1)C(=O)c1ccccc1`, the pEC50 was below 5.07 and the negative logarithm of the IC50 (pIC50) is below 5.07.
As for `COc1ccc(-c2onc(-c3c(C)cc(C)cc3C)c2C2=NCCN2)cc1`, the pEC50 is below 4.14 and the negative-log IC50 (pIC50) is below 4.14.
Turning to `NC(N)=NC(N)=Nc1cccc(S(=O)(=O)c2cccc(N=C(N)N=C(N)N)c2)c1`, the pEC50 was 3.90 and the pIC50 was below 3.70.
For `Cc1ccc(/C=C2\CNC/C(=C\c3ccc(C)cc3)C2=O)cc1`, in that order: below 5.40 and below 5.40.
With `NS(=O)(=O)OCCCCCCCOS(N)(=O)=O`, the pEC50 was below 3.06 and the pIC50 is 4.87.
For `COc1ccc(C2NC(=O)N3C(c4ccc(OC)c(OC)c4)NC(=O)N23)cc1OC` (stereo not given), in that order: below 3.70 and below 3.70.
For `COc1nc2c(c(=O)[nH]1)N=C(c1ccc(Cl)cc1)CC(c1ccccc1)N2` (stereo not given), in that order: below 3.70 and 4.26.
Taken in the same sequence, the figures for `O=C1C2C(C(=O)N1Cc1ccccc1)N(Cc1ccccc1)C(=O)N2Cc1ccccc1` (stereo not given) were below 4.91 and below 4.91.
With `C[N+]12CN3CN(C1)CP(=O)(C3)C2`, the pEC50 was below 3.10 and the negative-log IC50 (pIC50) is 3.94.
On to `O=C1c2ccccc2C2(O)c3cc4ccccc4cc3OC12O` (stereo not given), for which the pEC50 was below 3.23 and the negative logarithm of the IC50 (pIC50) is 4.35.
For `COc1ccc2nc3cc(Cl)ccc3c(Sc3ccc(NC(C)=O)cc3)c2c1`, in that order: below 4.90 and below 4.90.
Consider `NNC(=O)CC(=O)Nc1ccccc1F`, for which the pEC50 is below 2.93 and the pIC50 is 3.06.
With `CC(=O)Nc1ccc2oc(=O)ccc2c1`, the pEC50 was below 2.91 and the negative-log IC50 (pIC50) was 3.25.
With `O=C(O)c1ccc(CS(=O)c2ccc([N+](=O)[O-])cc2)c([N+](=O)[O-])c1` (stereo not given), the pEC50 is below 3.15 and the negative logarithm of the IC50 (pIC50) is 3.30.
Consider `Nc1nncc2n[nH]nc12`, for which the pEC50 is below 3.70 and the negative-log IC50 (pIC50) was 3.76.

The values above are taken from PubChem BioAssay AID179 (DTP/NCI, 2004).
